Measurements reported in patent publication US20250353848A1, “HETEROCYCLIC PAD4 INHIBITORS” (Celgene Corporation, priority 2022, published 2025).

The molecules below were run against hPAD4 enzyme (Homo sapiens, UniProt Q9UM07) (assay: RFMS Assay 1 (rapid-fire mass spectrum PAD4 inhibition assay, BAEE substrate)). Settings: 5 nM hPAD4 enzyme, 250 μM BAEE, 30 mins compound and enzyme preincubation at 37° C., 90 min enzyme/substrate reaction.
Chain of hPAD4 enzyme (Q9UM07 whole entry): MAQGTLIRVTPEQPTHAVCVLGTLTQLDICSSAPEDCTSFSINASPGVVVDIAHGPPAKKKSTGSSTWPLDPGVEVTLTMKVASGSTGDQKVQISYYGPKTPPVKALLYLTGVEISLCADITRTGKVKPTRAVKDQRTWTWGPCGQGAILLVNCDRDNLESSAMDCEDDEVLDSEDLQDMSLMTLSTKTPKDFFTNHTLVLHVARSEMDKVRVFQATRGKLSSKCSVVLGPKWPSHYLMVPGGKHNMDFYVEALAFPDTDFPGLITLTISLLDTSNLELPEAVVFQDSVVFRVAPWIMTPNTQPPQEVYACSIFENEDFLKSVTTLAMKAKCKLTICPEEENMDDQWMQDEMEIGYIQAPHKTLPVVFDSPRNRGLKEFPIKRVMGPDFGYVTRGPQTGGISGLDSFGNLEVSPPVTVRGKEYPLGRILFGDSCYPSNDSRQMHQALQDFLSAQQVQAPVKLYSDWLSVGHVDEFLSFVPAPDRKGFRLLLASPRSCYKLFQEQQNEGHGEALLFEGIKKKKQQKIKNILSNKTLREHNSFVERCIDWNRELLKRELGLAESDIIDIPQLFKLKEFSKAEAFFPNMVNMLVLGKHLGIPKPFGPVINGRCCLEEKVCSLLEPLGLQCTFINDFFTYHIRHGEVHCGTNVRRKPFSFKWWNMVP
Assay type: biochemical
Protocol: Compounds were solubilized in 100% DMSO to achieve a 10 mM compound concentration. Compound stock solutions were stored at RT. A series of dilutions were prepared in DMSO and mixed 8 times with 20 μL mixing volume. Final top concentration of compound in the assay is 50 μM. Final assay conditions were as follows: • Reaction volume: 26 μl • Assay buffer: 25 mM hepes, pH 7.5, 5 mM NaCl, 1 mM DTT, 0.2 mg/ml BSA, 0.01% CHAPS, 50 μM Calcium, and 5 μM TPEN • Final concentrations: 5 nM hPAD4 enzyme, 250 μM BAEE, and 0.5% DMSO • Total incubation time: 30 mins compound and enzyme preincubation at 37° C., 90 min enzyme/substrate reaction, 30 min reaction with phenyl glyoxal at 37° C. • Stop solution: 40 μl 5% TCA in ACN
0.13 μL of compound solution was added to 13 μL of 10 nM PAD4 in assay buffer. After 30 min 13 μl of 500 μM of BAEE was added in 25 mM hepes, pH 7.5, 5 mM NaCl, 1 mM DTT, 0.2 mg/ml BSA, 0.01% CHAPS, 50 µM Calcium, […] was added and the reaction incubated for 90 min at 37° C. The enzymatic reaction was quenched by addition of 15 μl of 6.1N TCA, 100% Final Concentration is 20%, 35 μl of 8.5 mM phenyl glyoxal (final concentration 4 mM) is then added and the reaction is incubated for 30 min at 37° C.
After 30 minutes the plates are spun down to remove all precipitate. The enzyme reaction was quenched with an equal volume of methanol containing internal standard (modified citrulline). Samples were loaded onto the Rapid Fire RF300 system (Agilent) wherein they were first sipped for 1000 ms and then directly loaded to a C18 separations cartridge using a mixture of acetonitrile containing 0.01% formic acid for 3000 ms desalting. The flow rate of the mobile phase was 1.5 ml/min. Once the samples were eluted from the cartridge, a mobile phase of acetonitrile containing 0.01% formic acid was used to move the samples into the mass spectrometer for 4000 ms at a flow rate of 1.25 ml/min/Sciex AP15500 triple quadrupole mass spectrometer (Applied Biosystems) equipped with ESI was used to analyze the peptidyl citrulline and internal standard ions.
MRM transition of product and internal standard were monitored at m/z 424.5 to 350.4 and m/z 293 to 247 respectively. The dwell time for each transition was set at 200 ms, and the ESI voltage was used at 5500 with a source temperature of 400° C. Extracted ion peaks for each transition were integrated using the Rapid Fire Integrator software. Peak area of analyte was normalized with internal standard.).
For `Cn1c(-c2cc3cccc(OC[C@H]4CNS(=O)(=O)C4)c3n2CC2CC2)nc2cc3c(nc21)CCN(C[C@H](N)CF)C3=O` [Example 52, 7-((S)-2-amino-3-fluoropropyl)-2-(1-(cyclopropylmethyl)-7-(((R)-1,1-dioxidoisothiazolidin-4-yl)methoxy)-1H-indol-2-yl)-3-methyl-3,5,6,7-tetrahydro-8H-imidazo[4,5-b][1,6]naphthyridin-8-one], the IC50 was 11 to 100 nM. `Cn1c(-c2cc3cccc(NC(=O)Cn4ccnc4)c3n2CC2CC2)nc2cc3c(nc21)CCN(C[C@H](N)CF)C3=O` [Example 100, (S)—N-(2-(7-(2-amino-3-fluoropropyl)-3-methyl-8-oxo-5,6,7,8-tetrahydro-3H-imidazo[4,5-b][1,6]naphthyridin-2-yl)-1-(cyclopropylmethyl)-1H-indol-7-yl)-2-(1H-imidazol-1-yl)acetamide] was tested, and the IC50 was 501 to 1000 nM. In the case of `COc1nccc2cc(-c3nc4cc5c(nc4n3C)CCN(C[C@H](N)CF)C5=O)n(CC(F)(F)F)c12` [Example 21, (S)-7-(2-amino-3-fluoropropyl)-2-(7-methoxy-1-(2,2,2-trifluoroethyl)-1H-pyrrolo[2,3-c]pyridin-2-yl)-3-methyl-3,5,6,7-tetrahydro-8H-imidazo[4,5-b][1,6]naphthyridin-8-one], the IC50 is reported as > 1000 nM. For `CC(C(F)Oc1cccc2cc(-c3nc4cc5c(nc4n3C)CCN(C[C@H](N)CF)C5=O)n(CC3CC3)c12)n1ccnc1` (single isomer, unassigned) [Example 78b], the IC50 was ≤ 10 nM. `Cn1c(-c2cc3cccc(OCC(F)n4ccnc4)c3n2CC2CC2)nc2cc3c(nc21)CCN(C[C@H](N)CF)C3=O` (single isomer, unassigned) [Example 79a] showed an IC50 of 11 to 100 nM. `C[C@H](COc1cccc2cc(-c3nc4cc5c(nc4n3C)CCN(C[C@H](N)CF)C5=O)n(CC3CC3)c12)n1cnc(C#N)c1` [Example 91, 1-((R)-1-((2-(7-((S)-2-amino-3-fluoropropyl)-3-methyl-8-oxo-5,6,7,8-tetrahydro-3H-imidazo[4,5-b][1,6]naphthyridin-2-yl)-1-(cyclopropylmethyl)-1H-indol-7-yl)oxy)propan-2-yl)-1H-imidazole-4-carbonitrile] gave an IC50 of 101 to 500 nM. Molecule `C[C@H](COc1cccc2cc(-c3nc4cc5c(nc4n3C)CCN(C[C@H](N)CF)C5=O)n(CC3CC3)c12)n1cncc1C#N` [Example 94, 1-((R)-1-((2-(7-((S)-2-amino-3-fluoropropyl)-3-methyl-8-oxo-5,6,7,8-tetrahydro-3H-imidazo[4,5-b][1,6]naphthyridin-2-yl)-1-(cyclopropylmethyl)-1H-indol-7-yl)oxy)propan-2-yl)-1H-imidazole-5-carbonitrile] has an IC50 of 101 to 500 nM. For `Cn1c(-c2cc3cccc(/C=C/Cn4cncc4F)c3n2CC2CC2)nc2cc3c(nc21)CCN(C[C@H](N)CF)C3=O` [Example 98, (S,E)-7-(2-amino-3-fluoropropyl)-2-(1-(cyclopropylmethyl)-7-(3-(5-fluoro-1H-imidazol-1-yl)prop-1-en-1-yl)-1H-indol-2-yl)-3-methyl-3,5,6,7-tetrahydro-8H-imidazo[4,5-b][1,6]naphthyridin-8-one], the IC50 was 101 to 500 nM. With `Cn1c(-c2cc3cccc(OC(C)(F)Cn4ccnc4)c3n2CC2CC2)nc2cc3c(nc21)CCN(C[C@H](N)CF)C3=O` (single isomer, unassigned) [Example 76a] the IC50 was 11 to 100 nM. With `Cn1c(-c2cc3cccc(OCCn4cnc(Cl)n4)c3n2CC2CC2)nc2cc3c(nc21)CCN(C[C@H](N)CF)C3=O` [Example 92, (S)-7-(2-amino-3-fluoropropyl)-2-(7-(2-(3-chloro-1H-1,2,4-triazol-1-yl)ethoxy)-1-(cyclopropylmethyl)-1H-indol-2-yl)-3-methyl-3,5,6,7-tetrahydro-8H-imidazo[4,5-b][1,6]naphthyridin-8-one] the IC50 was 11 to 100 nM. With `Cn1c(-c2cc3cccc(OCCc4cn[nH]c4)c3n2CC2CC2)nc2cc3c(nc21)CCN(C[C@H](N)CF)C3=O` [Example 50, (S)-2-(7-(2-(1H-pyrazol-4-yl)ethoxy)-1-(cyclopropylmethyl)-1H-indol-2-yl)-7-(2-amino-3-fluoropropyl)-3-methyl-3,5,6,7-tetrahydro-8H-imidazo[4,5-b][1,6]naphthyridin-8-one] the IC50 was ≤ 10 nM. With `C[C@@H](Cn1cncc1F)Oc1cccc2cc(-c3nc4cc5c(nc4n3C)CCN(C[C@H](N)CF)C5=O)n(CC3CC3)c12` [Example 68, 7-((S)-2-amino-3-fluoropropyl)-2-(1-(cyclopropylmethyl)-7-(((S)-1-(5-fluoro-1H-imidazol-1-yl)propan-2-yl)oxy)-1H-indol-2-yl)-3-methyl-3,5,6,7-tetrahydro-8H-imidazo[4,5-b][1,6]naphthyridin-8-one] the IC50 was 101 to 500 nM. In the case of `COc1cccc2cc(-c3nc4cc5c(nc4n3C)CCN(C[C@@H](C)N)C5=O)n(Cc3ncco3)c12` [Example 25, (R)-7-(2-aminopropyl)-2-(7-methoxy-1-(oxazol-2-ylmethyl)-1H-indol-2-yI)-3-methyl-3,5,6,7-tetrahydro-8H-imidazo[4,5-b][1,6]naphthyridin-8-one], the IC50 is reported as 101 to 500 nM. In the case of `[2H]c1nc([2H])n(CCOc2cccc3cc(-c4nc5cc6c(nc5n4C)CCN(C[C@H](N)CF)C6=O)n(CC4CC4)c23)c1[2H]` [Example 90, (S)-2-(7-(2-(1H-imidazol-1-yl-d3)ethoxy)-1-(cyclopropylmethyl)-1H-indol-2-yl)-7-(2-amino-3-fluoropropyl)-3-methyl-3,5,6,7-tetrahydro-8H-imidazo[4,5-b][1,6]naphthyridin-8-one], the IC50 is reported as ≤ 10 nM. Work on `Cn1c(-c2cc3cccc(OCCn4ccnc4C#N)c3n2CC2CC2)nc2cc3c(nc21)CCN(C[C@H](N)CF)C3=O` [Example 89, (S)-1-(2-((2-(7-(2-amino-3-fluoropropyl)-3-methyl-8-oxo-5,6,7,8-tetrahydro-3H-imidazo[4,5-b][1,6]naphthyridin-2-yl)-1-(cyclopropylmethyl)-1H-indol-7-yl)oxy)ethyl)-1H-imidazole-2-carbonitrile] yielded an IC50 of 101 to 500 nM. Work on `CC(=O)N1CCC(c2cccc3cc(-c4nc5cc6c(nc5n4C)CCN(C[C@H](N)CF)C6=O)n(CC4CC4)c23)CC1` [Example 29, (S)-2-(7-(1-acetylpiperidin-4-yl)-1-(cyclopropylmethyl)-1H-indol-2-yl)-7-(2-amino-3-fluoropropyl)-3-methyl-3,5,6,7-tetrahydro-8H-imidazo[4,5-b][1,6]naphthyridin-8-one] yielded an IC50 of 101 to 500 nM. For `Cn1c(-c2cc3cccc(OC(F)Cn4cnc(F)c4)c3n2CC2CC2)nc2cc3c(nc21)CCN(C[C@H](N)CF)C3=O` (single isomer, unassigned) [Example 73b], the IC50 was ≤ 10 nM. In the case of `C[C@@H](COc1cccc2cc(-c3nc4cc5c(nc4n3C)CCN(C[C@H](N)CF)C5=O)n(CC3CC3)c12)n1ccnc1` [Example 80, 2-(7-((S)-2-(1H-imidazol-1-yl)propoxy)-1-(cyclopropylmethyl)-1H-indol-2-yl)-7-((S)-2-amino-3-fluoropropyl)-3-methyl-3,5,6,7-tetrahydro-8H-imidazo[4,5-b][1,6]naphthyridin-8-one], the IC50 is reported as 11 to 100 nM. `Cn1c(-c2cc3cccc(OCCc4ccncc4)c3n2CC2CC2)nc2cc3c(nc21)CCN(C[C@H](N)CF)C3=O` [Example 57, (S)-7-(2-amino-3-fluoropropyl)-2-(1-(cyclopropylmethyl)-7-(2-(pyridin-4-yl)ethoxy)-1H-indol-2-yl)-3-methyl-3,5,6,7-tetrahydro-8H-imidazo[4,5-b][1,6]naphthyridin-8-one] gave an IC50 of 11 to 100 nM. `CN1C[C@H](COc2cccc3cc(-c4nc5cc6c(nc5n4C)CCN(C[C@H](N)CF)C6=O)n(CC4CC4)c23)CS1(=O)=O` [Example 53, 7-((S)-2-amino-3-fluoropropyl)-2-(1-(cyclopropylmethyl)-7-(((R)-2-methyl-1,1-dioxidoisothiazolidin-4-yl)methoxy)-1H-indol-2-yl)-3-methyl-3,5,6,7-tetrahydro-8H-imidazo[4,5-b][1,6]naphthyridin-8-one] was tested, and the IC50 was 101 to 500 nM. In the case of `C[C@@H](COc1cccc2cc(-c3nc4cc5c(nc4n3C)CCN(C[C@H](N)CF)C5=O)n(CC3CC3)c12)n1cnc(C#N)c1` [Example 87, 1-((S)-1-((2-(7-((S)-2-amino-3-fluoropropyl)-3-methyl-8-oxo-5,6,7,8-tetrahydro-3H-imidazo[4,5-b][1,6]naphthyridin-2-yl)-1-(cyclopropylmethyl)-1H-indol-7-yl)oxy)propan-2-yl)-1H-imidazole-4-carbonitrile], the IC50 is reported as 11 to 100 nM.
